Measurements from patent publication US7405228B2, “Antibacterial cyano-(substituted)-methylenepiperidinophenyl oxazolidinones targeting multiple ribonucleoprotein sites” (Wockhardt Limited, priority 2002, dated 2008).
Values after ≈ are worked out from the molar mass of the structure shown.

Key:
MRSA 032 = assay: MIC determination, linezolid sensitive MRSA 032 (MRSA-32); format: cell-based; conditions: Staphylococcus aureus, read-out: MIC MRSA 32
Method: (§1) Infecting doses of organisms given by intraperitoneal route in 5% hog gastric mucin were 10^3-10^4 CFU (colony forming units)/animal for SPN 6303 and 10^8 CFU/animal for MRSA-32. In case of MRSA-32, Linezolid was administered by oral route, 1 and 4 h post infection, BID (twice a day) for 1 day and for SPN 6303 BID for 2 days. […] MICs of Methicillin Resistant Staphylococcus aureus-32 Linezolid resistant (MRSA-32 LNZR), S. pneumoniae 744 Linezolid resistant (SPN 744 LNZR) and parent Linezolid sensitive strains MRSA-32 and SPN 6303 were determined for Linezolid by NCCLS agar dilution method.
(§2) Cultures were further diluted 1:10 in Mueller Hinton broth. Using Denley's mutipoint inoculator, 10^4 cells were deposited on Mueller Hinton agar (Difco) containing range of 2 fold dilutions of test compounds. […] MIC is defined as minimum drug concentration that inhibits test organisms. For determining MIC of test compounds against Streptococcus pneumoniae, Mueller Hinton agar containing 5% sheep blood was employed.

S. aureus MRSA-32 LNZR = assay: MIC determination, linezolid resistant S. aureus MRSA-32 LNZR; format: cell-based; conditions: Staphylococcus aureus, 24 h, read-out: MIC MRSA 32 LNZR
Method: as §1, §2

SPN 744 LNZR = assay: MIC determination, linezolid resistant SPN 744 LNZR; format: cell-based; conditions: Streptococcus pneumoniae, read-out: MIC SPN744 LNZR
Method: as §1, §2

E. faecium 367 LNZR = assay: MIC determination, linezolid resistant E. faecium 367 LNZR; format: cell-based; conditions: Enterococcus faecium, read-out: MIC E. faecium 367 LNZR
Method: E. faecium ATCC 19434 strain at a cell density of 10^6/ml was inoculated in Mueller Hinton broth medium containing Linezolid at a concentration of 5 and 7.5 mcg/ml. The stationary culture was incubated at 37° C. and inspected at every 24 hours to assess the formation of turbidity due to the onset of bacterial growth. […] A 50 microliter sample of turbid flask was plated on Mueller Hinton agar medium incorporated with linezolid at 7.5 mcg/ml. The agar plates were incubated for 48 hours at 37° C. for the formation of discrete colonies of linezolid-resistant strain of E. faecium (E. faecium 367 LNZR). MICs of resistant mutant E. faecium 367 LNZR and parent strain E. faecium ATCC 19434 were determined for linezolid by NCCLS method.
as §2

SPN 49619 = assay: MIC determination, linezolid sensitive SPN 49619; format: cell-based; conditions: Streptococcus pneumoniae; linezolid sensitive strain, Table 3
[1] = system: Enterococcus faecalis 416 strain; assay: Propensity to resistance development (resistant colonies per plate); format: cell-based; conditions: E. faecalis 416 at 10^8 CFU, compound concentration 5 mcg/ml, 48 hours at 35° C.
Method: Enterococcus faecalis 416 strain at 10^8 CFU density level was spirally plated on Mueller Hinton agar containing 5 mcg/ml each of linezolid and representative compound of the invention. Plates were incubated at 35° C. for 48 hours and number of resistant colonies developed in presence of respective compounds were counted by automated counter.

| Structure (SMILES) | MIC (MRSA 032) [µg/mL] | MIC (S. aureus MRSA-32 LNZR) [µg/mL] | MIC (SPN 744 LNZR) [µg/mL] | MIC (E. faecium 367 LNZR) [µg/mL] | MIC (SPN 49619) [µg/mL] | No. of colonies/plate [1] | melting point [°C] |
| --- | --- | --- | --- | --- | --- | --- | --- |
| CC(=S)NC[C@H]1CN(c2ccc(N3CCC(=C(C)C#N)CC3)c(F)c2)C(=O)O1 [Example 84, (S)-N-{3-[4-(4-(1-cyanoethylidene)-piperidin-1-yl)-3-fluorophenyl]-2-oxo-oxazolidin-5-ylmethyl}-thioacetamide] | 0.4 (≈ 0.994 µM) | 1.56 (≈ 3.88 µM) | 1.56 (≈ 3.88 µM) | 1.56 (≈ 3.88 µM) | 0.2 (≈ 0.497 µM) |  |  |
| CC(=O)NC[C@H]1CN(c2ccc(N3CC/C(=C/C#N)C(F)C3)c(F)c2)C(=O)O1 (stereo partly drawn) [56 (Z), Z-(S)-N-{3-[4-(4-cyanomethylidene-3-fluoropiperidin-1-yl)-3-fluorophenyl]-2-oxo-oxazolidin-5-ylmethyl}-acetamide] | 0.8 (≈ 2.05 µM) | 25 (≈ 64 µM) | 12.5 (≈ 32 µM) | 6.25 (≈ 16 µM) | 0.8 (≈ 2.05 µM) |  |  |
| CC(=O)NC[C@H]1CN(c2ccc(N3CC/C(=C\C#N)C(F)C3)c(F)c2)C(=O)O1 (stereo partly drawn) [56 (E), E-(S)-N-{3-[4-(4-cyanomethylidene-3-fluoropiperidin-1-yl)-3-fluorophenyl]-2-oxo-oxazolidin-5-ylmethyl}-acetamide] | 0.8 (≈ 2.05 µM) | 12.5 (≈ 32 µM) | 6.25 (≈ 16 µM) | 6.25 (≈ 16 µM) | 0.8 (≈ 2.05 µM) |  |  |
| CC(=S)NC[C@H]1CN(c2ccc(N3CCC(=C(C#N)c4ccccn4)CC3)c(F)c2)C(=O)O1 [Example 118, (S)-N-{3-[4-(4-(1-cyano-1-(pyridin-2-yl)-methylidene)-piperidin-1-yl)-3-fluorophen]-2-oxo-oxazolidin-5-ylmethyl}-thioacetamide] | 0.8 (≈ 1.72 µM) |  |  |  | 0.4 (≈ 0.859 µM) |  |  |
| CC(=O)NC[C@H]1CN(c2ccc(N3CC=C(CC#N)CC3)c(F)c2)C(=O)O1 [Example 159, (S)-N-{3-[4-(4-cyanomethyl-3,4-dehydropiperidin-1-yl)-3-fluorophenyl]-2-oxo-oxazolidin-5-ylmethyl}-acetamide] |  |  |  |  |  | 1.5 × 10^1 | 132 |
| CC(=O)NC[C@H]1CN(c2ccc(N3CCC(=C(C#N)c4cccs4)CC3)c(F)c2)C(=O)O1 [Example 105, (S)-N-{3-[4-(4-(1-cyano-1-(thiophen-2-yl)-methylidene)-piperidin-1-yl)-3-fluorophenyl]-2-oxo-oxazolidin-5-ylmethyl}-acetamide] | 0.8 (≈ 1.76 µM) |  |  |  | 0.8 (≈ 1.76 µM) |  |  |
| COC(=S)NC[C@H]1CN(c2ccc(N3CC/C(=C\C#N)C(C)C3)c(F)c2)C(=O)O1 (stereo partly drawn) [Example 67, (S)-N-{3-[4-(4-cyanomethylidene-3-methylpiperidin-1-yl)-3-fluorophenyl]-2-oxo-oxazolidin-5-ylmethyl}-methylthiocarbamate] | 0.8 (≈ 1.91 µM) | 12.5 (≈ 29.9 µM) | 6.25 (≈ 14.9 µM) | 3.12 (≈ 7.46 µM) | 0.4 (≈ 0.956 µM) |  |  |
| CC(=O)NC[C@H]1CN(c2ccc(N3CCC(=C(Br)C#N)CC3)c(F)c2)C(=O)O1 [Example 117, (S)-N-{3-[4-(4-(1-cyano-1-bromo-methylidene)-piperidin-1-yl)-3-fluorophenyl]-2-oxo-oxazolidin-5-ylmethyl}-acetamide] | 0.8 (≈ 1.77 µM) | 12.5 (≈ 27.7 µM) | 6.25 (≈ 13.8 µM) | 3.12 (≈ 6.91 µM) | 0.4 (≈ 0.886 µM) |  |  |
| CC(=S)NC[C@H]1CN(c2ccc(N3CCC(=C(C#N)C#N)CC3)c(F)c2)C(=O)O1 [Example 119, (S)-N-{3-[4-(4-(1,1-dicyano-methylidene)-piperidin-1-yl)-3-fluorophenyl]-2-oxo-oxazolidin-5-ylmethyl}-thioacetamide] | 0.4 (≈ 0.967 µM) |  |  |  | 0.8 (≈ 1.93 µM) |  |  |
| CC(C#N)=C1CCN(c2ccc(N3C[C@H](CNC(=O)C(F)F)OC3=O)cc2F)CC1 [Example 77, (S)-N-{3-[4-(4-(1-cyanoethylidene)-piperidin-1-yl)-3-fluorophenyl]-2-oxo-oxazolidin-5-ylmethyl}-difluoroacetamide] |  | 12.5 (≈ 29.6 µM) | 6.25 (≈ 14.8 µM) | 6.25 (≈ 14.8 µM) |  |  |  |
| N#C/C=C1\CCN(c2ccc(N3C[C@H](CNC(=O)C(F)F)OC3=O)cc2F)CC1F (stereo partly drawn) [Example 57, (S)-N-{3-[4-(4-cyanomethylidene-3-fluoropiperidin-1-yl)-3-fluorophenyl]-2-oxo-oxazolidin-5-ylmethyl}-difluoroacetamide] |  | 12.5 (≈ 29.3 µM) | 6.25 (≈ 14.7 µM) | 6.25 (≈ 14.7 µM) |  |  |  |
| CC(=S)NC[C@H]1CN(c2ccc(N3CCC(=CC#N)CC3)c(F)c2)C(=O)O1 [Example 45, (S)-N-{3-[4-(4-cyanomethylidene-piperidin-1-yl)-3-fluorophenyl]-2-oxo-oxazolidin-5-ylmethyl}-thioacetamide] | 0.2 (≈ 0.515 µM) | 3.12 (≈ 8.03 µM) | 3.12 (≈ 8.03 µM) |  | 0.2 (≈ 0.515 µM) |  |  |
| CC(C#N)=C1CCN(c2ccc(N3C[C@H](CNC(=O)C(Cl)Cl)OC3=O)cc2F)CC1 [Example 79, (S)-N-{3-[4-(4-(1-cyanoethylidene)-piperidin-1-yl)-3-fluorophenyl]-2-oxo-oxazolidin-5-ylmethyl}-dichloroacetamide] | 0.8 (≈ 1.76 µM) |  |  |  | 0.8 (≈ 1.76 µM) |  |  |
| CCC(C#N)=C1CCN(c2ccc(N3C[C@H](CNC(C)=O)OC3=O)cc2F)CC1 [Example 89, (S)-N-{3-[4-(4-(1-cyanopropylidene)-piperidin-1-yl)-3-fluorophenyl]-2-oxo-oxazolidin-5-ylmethyl}-acetamide] |  | 25 (≈ 62.4 µM) | 12.5 (≈ 31.2 µM) | 6.25 (≈ 15.6 µM) |  |  |  |
| CC(=O)NC[C@H]1CN(c2ccc(N3CCC(=CC#N)C(F)C3)c(F)c2)C(=O)O1 (mixture of isomers) [Example 56, (S)-N-{3-[4-(4-cyanomethylidene-3-fluoropiperidin-1-yl)-3-fluorophenyl]-2-oxo-oxazolidin-5-ylmethyl}-acetamide] |  |  |  |  |  | 0 |  |
| CC1CN(c2ccc(N3C[C@H](CNC(N)=S)OC3=O)cc2F)CC/C1=C\C#N (stereo partly drawn) [Example 68, (S)-N-{3-[4-(4-cyanomethylidene-3-methylpiperidin-1-yl)-3-fluorophenyl]-2-oxo-oxazolidin-5-ylmethyl}-thiocarbamide] | 0.4 (≈ 0.991 µM) | 6.25 (≈ 15.5 µM) | 3.12 (≈ 7.73 µM) | 3.12 (≈ 7.73 µM) | 0.4 (≈ 0.991 µM) |  |  |
| CCC(C#N)=C1CCN(c2ccc(N3C[C@H](CNC(C)=S)OC3=O)cc2F)CC1 [Example 93, (S)-N-{3-[4-(4-(1-cyanopropylidene)-piperidin-1-yl)-3-fluorophenyl]-2-oxo-oxazolidin-5-ylmethyl}-thioacetamide] | 0.4 (≈ 0.96 µM) | 6.25 (≈ 15 µM) | 3.12 (≈ 7.49 µM) | 1.56 (≈ 3.75 µM) | 0.2 (≈ 0.48 µM) |  |  |
| CC(=S)NC[C@H]1CN(c2ccc(N3CCC(=C(C#N)C(=S)N4CCOCC4)CC3)c(F)c2)C(=O)O1 [Example 121, (S)-N-{3-[4-(4-(1-cyano-1-(morpholin-1-yl-thiocarbonyl)-methylidene)-piperidin-1-yl)-3-fluorophenyl]-2-oxo-oxazolidin-5-ylmethyl}-thioacetamide] | 0.4 (≈ 0.773 µM) | 6.25 (≈ 12.1 µM) | 1.56 (≈ 3.01 µM) |  | 0.2 (≈ 0.386 µM) |  |  |
| CC(=S)NC[C@H]1CN(c2ccc(N3CC/C(=C\C#N)C(F)C3)c(F)c2)C(=O)O1 (stereo partly drawn) [Example 60, (S)-N-{3-[4-(4-cyanomethylidene-3-fluoropiperidin-1-yl)-3-fluorophenyl]-2-oxo-oxazolidin-5-ylmethyl}-thioacetamide] | 0.25 (≈ 0.615 µM) | 6.25 (≈ 15.4 µM) | 3.12 (≈ 7.68 µM) | 1.56 (≈ 3.84 µM) | 0.1 (≈ 0.246 µM) |  |  |
| CCOC(=O)c1cn(CC2CN(c3ccc(N4CCC(=CC#N)CC4)c(F)c3)C(=O)O2)nn1 (stereo in doubt) [Example 26, (S)-1-{3-[4-(4-cyanomethylidene-piperidin-1-yl)-3-fluorophenyl]-2-oxo-oxazolidin-5-ylmethyl}-4-carboethoxy-1,2,3-triazole] |  |  |  |  |  |  | 164 to 166 |
| C[C@H](N)C(=O)NC[C@H]1CN(c2ccc(N3CCC(=CC#N)CC3)c(F)c2)C(=O)O1 [Example 41, (2S, 5S)-{N-{3-[4-(4-cyanomethylidene-piperidin-1-yl)-3-fluorophenyl]-2-oxo-oxazolidin-5-ylmethyl}-propionamid-2-yl}-amine] |  |  |  |  |  |  | 103 to 105 |
| CSC(C#N)=C1CCN(c2ccc(N3C[C@H](CNC(C)=O)OC3=O)cc2F)CC1 [Example 115, (S)-N-{3-[4-(4-(1-cyano-1-methylmercapto-methylidene)-piperidin-1-yl)-3-fluorophenyl]-2-oxo-oxazolidin-5-ylmethyl}-acetamide] | 0.8 (≈ 1.91 µM) | 12.5 (≈ 29.9 µM) | 6.25 (≈ 14.9 µM) | 3.12 (≈ 7.46 µM) | 0.8 (≈ 1.91 µM) |  |  |
